From ChEMBL document CHEMBL3988442, “University of Dundee, Small-Polar-MMV Screening Library” (2021)

How the values were obtained:
[1] = microbe, parasite or virus in culture; settings: Mycobacterium tuberculosis, 96 h, read-out: pIC50 (converted)
[2] = microbe, parasite or virus in culture; settings: Mycobacterium tuberculosis, 72 h, read-out: pIC50 (converted)

Row | Structure (SMILES) | IC50 [1] [µM] | IC50 [2] [µM]
1 | CNc1nc(C(=O)NC2COc3ccccc3C2)cs1 (configuration not stated) | 262 | 130
2 | CC(C)CC(C)N(C)Cc1nnc(-c2ccco2)o1 (configuration not stated) | 14.9 | 11.7
3 | Cc1ccc(C2CCCN2CCS(C)(=O)=O)s1 (configuration not stated) | > 501 | 205
4 | Cc1cc(Br)cc2cc(C(=O)NC(C)(CO)CO)oc12 | 285 | 369
5 | CCOCCSc1nnc(Cc2ccccc2F)o1 | 27.5 | 33.5
6 | Cc1ccc(C(=O)NCc2ccnc(N(C)C)c2)s1 | > 501 | 273
7 | c1ccc(NCCNc2ccccn2)cc1 | 217 | 230
8 | COc1cc(OC)cc(N2CCC(N)C2)c1 (configuration not stated) | 213 | 232
9 | CC(C)CC(O)CNC(=O)c1cc(F)ccc1F (configuration not stated) | 57.2 | 238
10 | CNC(=O)C(C)(C)Oc1cccc(Cl)c1 | > 501 | > 501
11 | CNC(=O)CN(C)C(=O)CCc1ccc(Br)cc1F | 166 | 108
12 | COCCOCCNC(=O)C(C)Oc1ccccc1C(F)(F)F (configuration not stated) | > 50.1 | > 50.1
13 | NCC(=O)N1CCCC(CCc2c(F)cccc2F)C1 (configuration not stated) | 258 | 238
14 | O=C(c1cc(COc2ccc3c(c2)OCO3)[nH]n1)N1CCSCC1 | 33.5 | 31.8
15 | COc1cccc(C(=O)N2CCOC3(CCCN(C(C)=O)C3)C2)c1 (configuration not stated) | > 50.1 | > 50.1
16 | CN1CCC(N(C)CCC(=O)N2CCC(Cc3ccc(F)cc3)CC2)C1 (configuration not stated) | > 50.1 | 22
17 | O=C(c1cccnc1)N1CCC2(CC1)CNc1c(F)cccc12 | > 50.1 | > 50.1
18 | c1ccc(CCc2n[nH]c(C3CCC3)n2)cc1 | > 50.1 | > 50.1
19 | CCOC1COC2(CCN(Cc3ccc4c(c3)OCO4)CC2)C1 (configuration not stated) | > 50.1 | > 50.1
20 | COc1ccc(CN2CC[C@@H](O)[C@@H]2Cc2cnn(C)c2)cc1 | > 50.1 | > 50.1
21 | COC(=O)CSCC(=O)Nc1cc(F)cc(F)c1 | > 501 | 204
22 | c1ccc(NC2CCN(C3CCCC3)C2)nc1 (configuration not stated) | > 501 | > 501

Row | Structure (SMILES) | IC50 [1] [µM] | IC50 [2] [µM]
23 | FC(F)Oc1ccc(NCc2nc(C3CC3)no2)c(OC(F)F)c1 | > 50.1 | 24.2
24 | CC(C)CC(O)C(=O)NCc1cc2ccccc2[nH]1 (configuration not stated) | > 501 | > 501
25 | Cc1cc(CN2CCc3nc(C(C)C)nc(O)c3CC2)c(C)s1 | > 50.1 | > 50.1
26 | CCNCc1nc(-c2ccccc2)no1 | > 501 | > 501
27 | Cc1nc(N)cc(N2CCCC(COc3cccc(F)c3)C2)n1 (configuration not stated) | 27.9 | 46
28 | NC(=O)c1cc(C2CCCN(C(=O)CCc3ccncc3)C2)n[nH]1 (configuration not stated) | > 50.1 | > 50.1
29 | COC(=O)NCC(=O)N(C)c1ccc2ccccc2c1 | > 501 | 129
30 | Cn1c(=O)c2c(nc(Cl)n2CCCC#N)n(C)c1=O | > 501 | > 501
31 | CCc1ccccc1OC1CN(C(=O)c2cccs2)C1 | 14.2 | 5.46
32 | CSc1ncc(C(=O)N2CCN(c3ccccc3C)CC2C)cn1 (configuration not stated) | 18.3 | 16.4
33 | Cc1cc(NC(C)CN2CCOCC2)ncc1Br (configuration not stated) | > 501 | 420
34 | COc1ccc(CCN2CCCNCC2)cc1 | 159 | 73.3
35 | CCCN1CCN(C(=O)COc2ccccc2)CC1 | 57.3 | 33.3
36 | CC(Cn1cccn1)NCc1csc(-c2ccccc2F)n1 (configuration not stated) | 4.59 | 10.4
37 | NCc1coc(-c2cccs2)n1 | 298 | 144
38 | NCCc1ccc(OCC(F)(F)F)nc1 | 211 | 111
39 | O=C(c1ccno1)N1CCOC[C@H](Oc2ccc(C(F)(F)F)cc2)C1 | > 50.1 | > 50.1
40 | COc1cccc(CCC(=O)N2CCCC2)c1 | 8 | 2.73
41 | CN(CC1COc2ccccc2O1)C(=O)C1CCC1 (configuration not stated) | 173 | 182
42 | CNC(=O)NC(=O)CSc1ccccc1F | > 501 | > 501
43 | O=c1c2ccccc2nc2n1C(CSc1ccc(F)cc1)CN2 (configuration not stated) | > 50.1 | > 50.1
44 | COc1ccc(CNCCc2ccn(-c3ccccc3)n2)cc1O | > 50.1 | > 50.1

Row | Structure (SMILES) | IC50 [1] [µM] | IC50 [2] [µM]
45 | COCCCNC(=O)c1ccn(-c2ccc(F)cc2)n1 | 154 | 114
46 | O=S(=O)(NCCNc1ccc(-n2cccn2)nn1)c1ccccc1 | 15.9 | 24.9
47 | CCc1cccc2c1N(C(=O)CNC)CC2 | > 501 | 367
48 | CN1C(=O)c2ccc(C(=O)NC3CC3)cc2C1=O | > 501 | > 501
49 | C=C(Br)Cn1c(CO)nc2ccccc21 | > 501 | > 501
50 | O=C1C=CC(=O)N1c1ccccc1OC(F)F | 143 | 109
51 | CC(C)Cc1ccc(CS(=O)(=O)CCO)cc1 | 83.5 | 353
52 | COC(=O)CCCC(=O)N1CCCc2ccc(F)cc21 | 277 | 213
53 | O=c1ccc(Br)cn1Cc1noc(C2CC2)n1 | 204 | 78.4
54 | O=c1c2sccc2nc2n1CCN(Cc1ccccc1C(F)(F)F)CC2 | > 50.1 | > 50.1
55 | CC(C)c1ccccc1OCC(O)CN(C)CCO (configuration not stated) | 257 | 123
56 | NCc1noc(-c2ccc(Cl)cc2F)n1 | 242 | 277
57 | CCS(=O)(=O)NCC(N)c1ccc(C(C)C)cc1 (configuration not stated) | 211 | 85.8
58 | O=C(CCN1CCCCC1)c1ccc2c(c1)OCO2 | > 501 | > 501
59 | CC(C)C(C)N(C)Cc1nnc(-c2ccc(Br)s2)o1 (configuration not stated) | 20.4 | 48.4
60 | NC(=O)C(N)c1ccc2c(c1)OCCO2 (configuration not stated) | > 501 | > 501
61 | NCc1noc2c1CCCC2 | > 501 | > 501
62 | CCNC(=O)NC(c1ccc2c(c1)OCCO2)C(C)C (configuration not stated) | > 501 | > 501
63 | CCOC(=O)c1ccc(CN2CCOCC2)cn1 | > 501 | > 501
64 | CN(Cc1nnc(C2CC2)o1)Cc1ccccc1-c1ccccc1 | > 50.1 | 24.7
65 | NC(=O)NC(=O)CCN(Cc1ccccc1)CC1CCOCC1 | 35.7 | 28.7
66 | Cc1ccc(CNC(=O)c2ccc(F)cc2)o1 | 47.3 | 19.6

Row | Structure (SMILES) | IC50 [1] [µM] | IC50 [2] [µM]
67 | CCC(O)CN1CCN(c2ncccc2Br)CC1 (configuration not stated) | > 501 | > 501
68 | CCCn1nnnc1NCc1ccc(C)s1 | 51.8 | 64.7
69 | NCC(=O)N1CCCC(CCc2ccc(F)c(F)c2)C1 (configuration not stated) | 183 | 190
70 | Cn1cc(NC(=O)C2=Cc3ccccc3OC2)cn1 | > 501 | > 501
71 | CC(O)(CNc1ncccc1F)C1CCCC1 (configuration not stated) | 262 | 142
72 | CC(=O)c1cccc(OCC(=O)NC2CCCC2)c1 | 182 | 290
73 | NCCc1nc(C2CC2)cs1 | 103 | 91.5
74 | Cc1nsc(C(=O)NCCc2cccs2)n1 | 32.7 | 13.5
75 | CN(C)c1nccc(CNc2ccc(C#N)nc2)n1 | 249 | 128
76 | COC(=O)CCCC(=O)N1CCCc2ccccc2C1 | > 501 | 180
77 | N#CCC1(O)CN(S(=O)(=O)C=Cc2ccc(Cl)cc2)C1 | > 501 | 287
78 | COc1ccc([C@@H]2C[C@H](NC(C)=O)C[C@H](Cc3ccccc3)O2)cn1 | 28.3 | > 50.1
79 | Clc1cncc(NCC2CN(C3CC3)CCO2)n1 (configuration not stated) | 311 | 259
80 | COc1ccc(C)cc1CN1CCN(S(N)(=O)=O)CC1 | 184 | 65.2
81 | O=C(c1cccc2cn[nH]c12)N1CCCC1CO (configuration not stated) | > 501 | > 501
82 | N#Cc1ccccc1N1CCCC(N)C1 (configuration not stated) | 142 | 79.7
83 | COc1ccc(COCC(=O)N2CCCC(n3cncn3)C2)cc1 (configuration not stated) | > 50.1 | > 50.1
84 | CC(C)C(NS(=O)(=O)N1CCOCC1)c1ccccc1 (configuration not stated) | > 501 | > 501
85 | CC(CCc1ccc(O)cc1)NC1(CO)CC1 (configuration not stated) | > 501 | 199
86 | Nc1nc(CCCNC(=O)Cc2ccsc2)cs1 | > 501 | > 501
87 | O=C(c1cc(Cl)c[nH]1)N1CCOC(c2cccs2)C1 (configuration not stated) | > 501 | 50.5
88 | CNc1nc(NCCS(C)(=O)=O)ncc1Br | > 501 | > 501

Row | Structure (SMILES) | IC50 [1] [µM] | IC50 [2] [µM]
89 | O=C(CSCc1ccc(Cl)s1)N1CCOCC1 | 286 | 304
90 | O=C(CNC1CC1)NCCc1ccc(F)cc1 | 63.6 | 31.5
91 | CN(C)C(=O)COC(=O)c1ccc2ccccc2n1 | > 501 | 142
92 | COc1ccccc1C(O)CNc1cccc(C)n1 (configuration not stated) | 136 | > 501
93 | COCCC(=O)N1CCC(Nc2ncccc2Br)CC1 | 288 | > 501
94 | CCN(CCO)Cc1cc(-c2cccs2)on1 | > 501 | 145
95 | COc1ccc(Br)c(S(=O)(=O)N(C)C)c1 | > 501 | 358
96 | Cc1cc(NC(C)c2ccco2)nc(N)n1 (configuration not stated) | > 501 | > 501
97 | Cn1nccc1C(=O)NC1CCc2ccccc2OC1 (configuration not stated) | > 501 | > 501
98 | O=C(c1cccs1)N1CCC2(CC1)CN(c1ccsc1)C(=O)CO2 | > 50.1 | > 50.1
99 | CSc1ccccc1NC(=O)CCn1cnc(C#N)n1 | > 501 | > 501
100 | COc1ccc2[nH]c(C(=O)NCC3CCCO3)cc2c1 (configuration not stated) | 220 | 156
101 | NCC(O)c1ccc(Cl)c(F)c1 (configuration not stated) | > 501 | 252
102 | O=C(CSc1ncnn1-c1ccccc1)N1CCCC1 | 101 | 200
103 | CCN1CCN(C(C)CNC(=O)Cn2cnnn2)CC1 (configuration not stated) | > 501 | > 501
104 | CN(C)CC(=O)N1CCC2(CCc3cc(-c4cccnc4)ccc32)CC1 | > 50.1 | > 50.1
105 | Cc1cc(C(=O)NCC(CO)c2ccccc2)ns1 (configuration not stated) | 130 | 103
106 | OCCOCCNCC(O)COCc1ccccc1Cl (configuration not stated) | > 501 | > 501
